Results published in paper PMC7803973, “Structural basis of malaria parasite phenylalanine tRNA-synthetase inhibition by bicyclic azetidines” (Nature Communications, 2021).

Tests used:
Experiment in all cases: Malachite green aminoacylation enzyme inhibition assay
Type in all cases: biochemical
[1] = molecular target: HscFRS (Homo sapiens, UniProt Q9Y285)
Description: (§1) These were done using malachite green assay as per earlier published reports[1],[6]. Briefly, the reaction was performed for 100 µM ATP, 50 µM L-phenylalanine and 100 nM recombinant PheRS enzymes (Pf, Pv, Hs, Pf mutant (L550V)) in a buffer containing 30 mM HEPES (pH 7.5), 150 mM, NaCl, 30 mM KCl, 50 mM, MgCl2, 1 mM DTT, and 2 U/ml E. coli inorganic pyrophosphatase (NEB) at 37 °C. Enzymatic reactions (50 μl total volume) were performed in clear, flat-bottomed, 96-well plates (Costar 96-well standard microplates). The reaction mixture was incubated for 2 h at 37 °C. The reaction was stopped by adding 12.5 μl of malachite green solution to the reaction mixture and levels of inorganic phosphate (Pi) were detected after incubation of 5 min at room temperature. Absorbance was the measured at 620 nm using a Spectramax M2 (Molecular Devices). Reactions without FRS enzyme were performed as background controls, values of which were subtracted from the reactions with enzyme. BRD1389 was added to our aminoacylation assay reaction buffer in varying concentrations ranging from 0.1 nM to 10,000 nM. The IC50 value for the data is shown for three replicates as the mean ± SD.

[2] = molecular target: T1, PfcFRS (Plasmodium falciparum, UniProt Q8I246)
T1 sequence (Q8I246 1-575): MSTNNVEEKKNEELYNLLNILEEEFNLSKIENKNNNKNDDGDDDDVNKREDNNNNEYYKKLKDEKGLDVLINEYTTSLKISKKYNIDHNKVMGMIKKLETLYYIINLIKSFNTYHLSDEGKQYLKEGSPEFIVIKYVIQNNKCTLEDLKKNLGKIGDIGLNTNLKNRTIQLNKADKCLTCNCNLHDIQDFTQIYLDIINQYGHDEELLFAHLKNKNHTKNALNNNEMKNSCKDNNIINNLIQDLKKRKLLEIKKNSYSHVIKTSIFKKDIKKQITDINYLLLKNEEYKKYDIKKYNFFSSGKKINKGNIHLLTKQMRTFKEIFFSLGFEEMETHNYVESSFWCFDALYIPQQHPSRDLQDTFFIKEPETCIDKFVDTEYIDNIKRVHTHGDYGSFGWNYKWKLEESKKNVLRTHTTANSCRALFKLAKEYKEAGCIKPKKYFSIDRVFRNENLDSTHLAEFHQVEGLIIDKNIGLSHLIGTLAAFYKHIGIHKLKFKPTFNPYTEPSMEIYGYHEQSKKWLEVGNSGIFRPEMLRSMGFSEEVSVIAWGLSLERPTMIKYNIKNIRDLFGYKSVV
T1 sequence (Q8IIW2 1-623 partner): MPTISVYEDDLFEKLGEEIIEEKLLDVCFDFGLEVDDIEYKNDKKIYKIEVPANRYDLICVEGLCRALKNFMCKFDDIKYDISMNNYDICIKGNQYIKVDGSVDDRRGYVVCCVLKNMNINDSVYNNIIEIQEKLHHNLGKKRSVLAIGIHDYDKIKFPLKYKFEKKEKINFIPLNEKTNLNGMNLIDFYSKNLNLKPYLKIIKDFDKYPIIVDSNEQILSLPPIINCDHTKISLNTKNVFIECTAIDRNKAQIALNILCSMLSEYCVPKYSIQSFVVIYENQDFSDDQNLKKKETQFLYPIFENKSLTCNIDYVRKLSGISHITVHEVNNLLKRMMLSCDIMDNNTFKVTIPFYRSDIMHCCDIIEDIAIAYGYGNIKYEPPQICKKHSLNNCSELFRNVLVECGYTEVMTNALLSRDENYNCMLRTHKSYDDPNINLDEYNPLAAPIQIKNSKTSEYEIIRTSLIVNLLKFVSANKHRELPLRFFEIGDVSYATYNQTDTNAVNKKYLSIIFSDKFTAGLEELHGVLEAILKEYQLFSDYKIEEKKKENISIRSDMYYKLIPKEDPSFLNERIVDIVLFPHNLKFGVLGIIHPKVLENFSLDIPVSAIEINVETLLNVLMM
Description: as §1

[3] = molecular target: PfcFRS mutant (L550V) (Plasmodium falciparum, UniProt Q8I246, L550V)
Description: as §1

[4] = molecular target: T2, PvcFRS (Plasmodium vivax, UniProt A5K9S0)
T2 construct: Full-length PvcFRS was also purified according to the same protocol; vector-encoded tag of pETM11 (own knowledge: N-terminal His6 with TEV site); Ni-NTA purification; made in house; host or cells: E. coli strain B834
T2 sequence (A5K464 whole entry): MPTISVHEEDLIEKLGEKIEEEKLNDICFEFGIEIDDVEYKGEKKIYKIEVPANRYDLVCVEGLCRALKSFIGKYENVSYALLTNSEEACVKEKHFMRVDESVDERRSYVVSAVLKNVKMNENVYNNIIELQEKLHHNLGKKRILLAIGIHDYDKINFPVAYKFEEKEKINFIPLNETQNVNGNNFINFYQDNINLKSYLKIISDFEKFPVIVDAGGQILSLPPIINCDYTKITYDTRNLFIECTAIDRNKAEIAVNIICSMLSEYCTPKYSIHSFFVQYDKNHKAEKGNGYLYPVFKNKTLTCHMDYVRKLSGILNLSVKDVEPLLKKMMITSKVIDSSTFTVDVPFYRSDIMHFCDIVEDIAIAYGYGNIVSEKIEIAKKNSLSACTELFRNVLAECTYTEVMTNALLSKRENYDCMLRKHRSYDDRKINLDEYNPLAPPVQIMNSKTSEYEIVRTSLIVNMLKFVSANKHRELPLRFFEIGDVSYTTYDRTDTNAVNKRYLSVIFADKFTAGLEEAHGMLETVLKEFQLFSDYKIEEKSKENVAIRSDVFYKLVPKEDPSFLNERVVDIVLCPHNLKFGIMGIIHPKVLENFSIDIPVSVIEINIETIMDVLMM
T2 sequence (A5K9S0 whole entry): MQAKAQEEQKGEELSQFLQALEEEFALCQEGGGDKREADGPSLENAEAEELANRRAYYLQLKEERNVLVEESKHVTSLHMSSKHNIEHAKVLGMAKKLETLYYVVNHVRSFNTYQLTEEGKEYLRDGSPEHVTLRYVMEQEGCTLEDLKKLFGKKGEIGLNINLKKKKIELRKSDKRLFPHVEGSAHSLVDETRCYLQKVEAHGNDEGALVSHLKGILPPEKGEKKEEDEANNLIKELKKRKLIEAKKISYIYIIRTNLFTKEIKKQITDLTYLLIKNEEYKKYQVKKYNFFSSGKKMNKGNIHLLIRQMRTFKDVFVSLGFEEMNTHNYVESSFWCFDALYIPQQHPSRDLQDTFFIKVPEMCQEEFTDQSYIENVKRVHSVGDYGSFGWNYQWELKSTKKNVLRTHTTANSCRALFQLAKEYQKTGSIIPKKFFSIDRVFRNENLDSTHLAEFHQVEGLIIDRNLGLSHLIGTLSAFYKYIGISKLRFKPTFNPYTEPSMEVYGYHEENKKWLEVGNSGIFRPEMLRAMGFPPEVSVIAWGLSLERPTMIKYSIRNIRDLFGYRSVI
Description: as §1

[5] = 2 h, read-out: % Enzyme Activity

Chain of HscFRS (Q9NSD9 whole entry): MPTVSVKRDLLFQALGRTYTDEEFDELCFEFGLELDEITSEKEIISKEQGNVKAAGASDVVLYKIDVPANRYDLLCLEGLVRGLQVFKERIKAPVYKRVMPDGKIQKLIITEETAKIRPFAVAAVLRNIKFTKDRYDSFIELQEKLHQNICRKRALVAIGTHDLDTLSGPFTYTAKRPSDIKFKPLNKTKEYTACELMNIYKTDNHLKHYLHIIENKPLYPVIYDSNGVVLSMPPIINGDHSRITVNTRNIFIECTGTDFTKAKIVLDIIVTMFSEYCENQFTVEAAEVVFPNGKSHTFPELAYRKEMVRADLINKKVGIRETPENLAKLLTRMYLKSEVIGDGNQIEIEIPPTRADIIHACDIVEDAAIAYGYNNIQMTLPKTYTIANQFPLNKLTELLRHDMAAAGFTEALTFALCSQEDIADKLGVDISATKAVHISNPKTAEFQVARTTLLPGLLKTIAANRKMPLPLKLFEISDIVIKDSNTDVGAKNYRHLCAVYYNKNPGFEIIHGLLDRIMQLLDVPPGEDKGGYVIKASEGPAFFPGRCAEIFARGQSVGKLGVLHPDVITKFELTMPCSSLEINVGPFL
Chain of HscFRS (Q9Y285 whole entry): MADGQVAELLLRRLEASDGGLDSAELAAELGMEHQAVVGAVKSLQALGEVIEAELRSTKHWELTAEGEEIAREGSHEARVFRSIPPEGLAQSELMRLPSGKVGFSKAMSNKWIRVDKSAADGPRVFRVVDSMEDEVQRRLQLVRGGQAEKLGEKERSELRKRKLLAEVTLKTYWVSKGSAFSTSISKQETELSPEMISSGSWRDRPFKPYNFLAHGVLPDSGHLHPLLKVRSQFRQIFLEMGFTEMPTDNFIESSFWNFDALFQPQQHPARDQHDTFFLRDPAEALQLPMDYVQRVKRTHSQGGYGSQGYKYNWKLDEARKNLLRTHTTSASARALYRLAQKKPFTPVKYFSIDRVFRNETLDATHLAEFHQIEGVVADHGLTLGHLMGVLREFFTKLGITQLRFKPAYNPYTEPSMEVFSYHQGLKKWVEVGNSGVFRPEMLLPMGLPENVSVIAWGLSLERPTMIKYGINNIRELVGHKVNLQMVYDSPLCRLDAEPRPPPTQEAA

COC[C@@H]1[C@H](c2ccc(C#Cc3ccccc3)cc2)[C@@H]2CN(C(=O)Nc3ccc(OC4CC4)cc3)C[C@@H](O)[C@@H](O)CN12 [BRD1389] gave an IC50 ([1]; Hs cFRS aminoacylation activity) of 12000 nM, a remaining activity at 0.0001 µM ([1]; HscFRS, BRD1389 0.0001 uM) of 99.6% and a remaining activity at 0.001 µM ([1]; HscFRS, BRD1389 0.001 uM) of 100%. For the same compound, the remaining activity at 0.01 µM ([1]; HscFRS, BRD1389 0.01 uM) was 99.7%, the remaining activity at 0.1 µM ([1]; HscFRS, BRD1389 0.1 uM) was 90.2% and the remaining activity at 1 µM ([1]; HscFRS, BRD1389 1 uM) was 85%. For the same compound, the remaining activity at 10 µM ([1]; HscFRS, BRD1389 10 uM) was 49.5%, the remaining activity at 100 µM ([1]; HscFRS, BRD1389 100 uM) was 20% and the remaining activity at 1 pM [2, 5] was 100%. The remaining activity at 0.0001 µM ([2]; 2 h, PfcFRS, BRD1389 0.0001 uM) was 98.4%, the remaining activity at 0.001 µM ([2]; 2 h, PfcFRS, BRD1389 0.001 uM) was 85.2% and the remaining activity at 0.01 µM ([2]; 2 h, PfcFRS, BRD1389 0.01 uM) was 46.7%. For the same compound, the remaining activity at 0.1 µM ([2]; 2 h, PfcFRS, BRD1389 0.1 uM) was 9.72%, the remaining activity at 1 µM ([2]; 2 h, PfcFRS, BRD1389 1 uM) was 4.61% and the remaining activity at 10 µM ([2]; 2 h, PfcFRS, BRD1389 10 uM) was 1.17%. The remaining activity at 100 µM ([2]; 2 h, PfcFRS, BRD1389 100 uM) was 0%, the IC50 ([2]; Pf cFRS aminoacylation activity) was 12 ± 0.8 nM and the IC50 [3] was 1000 nM. The remaining activity at 1 pM [3, 5] was 100%, the remaining activity at 0.0001 µM [3, 5] was 99.5% and the remaining activity at 0.001 µM [3, 5] was 98%. The remaining activity at 0.01 µM [3, 5] was 95.2%, the remaining activity at 0.1 µM [3, 5] was 75.4% and the remaining activity at 1 µM [3, 5] was 55.3%. The remaining activity at 10 µM [3, 5] was 18.8%, the remaining activity at 100 µM [3, 5] was 0% and the remaining activity at 1 pM [4, 5] was 100%. For the same compound, the IC50 ([4]; Pv cFRS aminoacylation activity) was 25 ± 1 nM, the remaining activity at 0.0001 µM ([4]; PvcFRS, BRD1389 0.0001 uM) was 95.4% and the remaining activity at 0.001 µM ([4]; PvcFRS, BRD1389 0.001 uM) was 86.2%. The remaining activity at 0.01 µM ([4]; PvcFRS, BRD1389 0.01 uM) was 60.7%, the remaining activity at 0.1 µM ([4]; PvcFRS, BRD1389 0.1 uM) was 20.7% and the remaining activity at 1 µM ([4]; PvcFRS, BRD1389 1 uM) was 8.61%. The remaining activity at 10 µM ([4]; PvcFRS, BRD1389 10 uM) was 2.17% and the remaining activity at 100 µM ([4]; PvcFRS, BRD1389 100 uM) was 0%.
